Measurements published in patent publication US20070123556A1, “Treatment with Sigma Receptor Agonists Post-Stroke” (UNIVERSITY OF SOUTH FLORIDA, priority 2005, published 2007).
Where two headings read alike, the source gives them in different places.

Key:
ASIC channels = assay: low-pH (pH 6.0) evoked ASIC-mediated increases in [Ca2+]i; format: cell-based, rat; settings: 100 μM, pH 6.0
rats subjected to MCAO [1] = assay: NeuN immunostaining, viable neurons after MCAO; format: in vivo, rat; settings: 15 mg/kg
Protocol: MCAO surgery was performed as previously reported by Vendrame et al (Vendrame et al., 2004) and originally described by Longa et al (Longa et al., 1989). Laser Doppler Radar (LDR) was used to monitor decrease in blood perfusion which indicates successful occlusion (Moor Instruments Ltd, Devon, England). A 2 mm diameter hole was drilled into the right parietal bone (1 mm posterior and 4 mm lateral from bregma), and a guide screw was set. The LDR probe (MP10M200ST; Moor) was inserted into the guide screw, and the tip of the probe was placed against the pial surface of the brain. […] For MCAO, the embolus (4 cm long, 6 lb test monofilament) was advanced up the internal carotid artery into the middle cerebral artery and tied off at the internal/external carotid junction to produce permanent occlusion. The rat was then sutured, given a 1 ml subcutaneous injection of saline, and allowed to wake in a fresh cage. […]
[…]. […] The area of the contralateral side of the brain tissue was measured and used to compensate for possible edema in ipsilateral hemispheres. NeuN immunostaining was analyzed using the NIH Image J software to count NeuN positive cells by particle analysis in the ipsilateral hemispheres of the corticalustriatal and corticaluhippocampal regions of the rat brains at a magnification of 10×.

rats subjected to MCAO [2] = test system: rats subjected to MCAO
glutamate receptors = settings: 100 μM; cited from earlier work

Cc1ccccc1NC(=N)Nc1ccccc1C [DTG, 1,3-di-o-tolyguanidine]
effect on low-pH evoked transient increases in [Ca2+]i (ASIC channels): inhibits | increase of surviving NeuN cells in the infarct zone relative to MCAO-only animals (rats subjected to MCAO [1]; 24 hr post stroke): > 83% | number of viable neurons (NeuN) in ipsilateral infarct zones (rats subjected to MCAO [1]; cortical/striatal and cortical/hippocampal, p<0.001): significantly increased | survival rate 96 hours post MCAO (rats subjected to MCAO [2]; 15 mg/kg daily s.c. at 24, 48, 72 h post MCAO): over 70% | survival rate 96 hours post MCAO (rats subjected to MCAO [2]; 30 mg/kg daily s.c. at 24, 48, 72 h post MCAO): under 40% | deaths in sham animals following DTG application (rats subjected to MCAO [2]; sham control, 15 mg/kg DTG): none | inhibition of calcium elevations evoked by glutamate application (glutamate receptors): not
